Laboratory results as given in ChEMBL document CHEMBL1201862, “PubChem BioAssay data set” (2004).
Calls of active or inactive are those of the source.

What was measured:
[1] = biological target: T1, Aminopeptidase N (Plasmodium falciparum FcB1/Columbia, UniProt O96935); test: P. falciparum M1AAP inhibitors, biochemical, fluorogenic H-Leu-NHMec substrate, 1536-well (AID 1445); design: species or system Plasmodium falciparum 3D7, 3D7
T1 sequence (O96935 whole entry): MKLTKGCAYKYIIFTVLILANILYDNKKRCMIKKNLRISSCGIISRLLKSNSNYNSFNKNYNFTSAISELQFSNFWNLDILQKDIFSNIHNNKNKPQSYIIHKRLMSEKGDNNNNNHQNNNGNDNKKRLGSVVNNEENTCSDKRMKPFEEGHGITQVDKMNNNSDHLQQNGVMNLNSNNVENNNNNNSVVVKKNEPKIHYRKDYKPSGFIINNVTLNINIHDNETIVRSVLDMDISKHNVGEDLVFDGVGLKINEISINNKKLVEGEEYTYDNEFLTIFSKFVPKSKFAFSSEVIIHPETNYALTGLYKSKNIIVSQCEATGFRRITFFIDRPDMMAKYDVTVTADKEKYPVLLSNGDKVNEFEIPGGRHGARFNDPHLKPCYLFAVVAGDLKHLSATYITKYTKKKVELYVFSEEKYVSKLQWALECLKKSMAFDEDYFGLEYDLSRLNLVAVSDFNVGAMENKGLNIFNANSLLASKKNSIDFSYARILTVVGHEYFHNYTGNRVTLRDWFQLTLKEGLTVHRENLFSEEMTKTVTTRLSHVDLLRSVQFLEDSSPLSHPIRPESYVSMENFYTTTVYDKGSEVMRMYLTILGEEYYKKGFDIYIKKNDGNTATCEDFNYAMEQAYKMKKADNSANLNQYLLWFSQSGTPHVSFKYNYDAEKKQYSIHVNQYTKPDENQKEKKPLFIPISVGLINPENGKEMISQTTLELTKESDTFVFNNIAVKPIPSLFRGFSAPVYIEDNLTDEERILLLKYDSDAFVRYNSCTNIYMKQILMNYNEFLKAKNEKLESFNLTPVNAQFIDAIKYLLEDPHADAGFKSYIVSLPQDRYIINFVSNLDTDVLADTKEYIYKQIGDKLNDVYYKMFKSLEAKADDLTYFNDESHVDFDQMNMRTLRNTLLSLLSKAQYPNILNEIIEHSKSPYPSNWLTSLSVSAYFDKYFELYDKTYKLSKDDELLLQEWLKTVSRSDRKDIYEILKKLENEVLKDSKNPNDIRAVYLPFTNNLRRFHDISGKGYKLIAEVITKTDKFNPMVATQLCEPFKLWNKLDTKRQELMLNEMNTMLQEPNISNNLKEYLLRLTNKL

[2] = biological target: T2, Voltage-gated N-type calcium channel alpha-1B subunit/Amyloid beta A4 precursor protein-binding family A member 1 (Homo sapiens, UniProt Q00975+Q02410); type: protein assay
[3] = biological target: T2, Voltage-gated N-type calcium channel alpha-1B subunit/Amyloid beta A4 precursor protein-binding family A member 1; type: protein assay; remark: listed apart in the source
[4] = biological target: T3, Cysteine protease ATG4B (Homo sapiens, UniProt Q9Y4P1); type: functional;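 further: Fluorescence-based dose-response confirmation assay measuring inhibition of ATG4B activity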
T3 sequence (Q9Y4P1 whole entry): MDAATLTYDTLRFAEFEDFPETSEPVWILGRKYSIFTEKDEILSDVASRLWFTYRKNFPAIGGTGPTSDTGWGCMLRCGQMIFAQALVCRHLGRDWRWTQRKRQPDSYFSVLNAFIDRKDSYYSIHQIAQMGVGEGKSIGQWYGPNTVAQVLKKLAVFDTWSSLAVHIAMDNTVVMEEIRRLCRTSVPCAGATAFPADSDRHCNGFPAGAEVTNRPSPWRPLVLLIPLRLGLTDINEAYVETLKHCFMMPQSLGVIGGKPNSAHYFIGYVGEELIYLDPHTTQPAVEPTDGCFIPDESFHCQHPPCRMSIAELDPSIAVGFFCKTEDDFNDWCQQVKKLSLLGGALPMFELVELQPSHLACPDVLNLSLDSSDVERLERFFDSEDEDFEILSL

[5] = biological target: Phospholipase A2 (Homo sapiens, UniProt P04054); type: functional;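 further: confirmatory dose-response counterscreen on phospholipase A2, testing hits that came from an ultra-high-throughput screen for ATG4B inhibitors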
[6] = biological target: 26S proteasome non-ATPase regulatory subunit 14 (Homo sapiens, UniProt O00487); test: inhibition of proteasome subunit RPN11 – biochemical, fluorescence polarization, uHTS hits, confirmation (AID 602368); type: functional
[7] = biological target: 72 kDa type IV collagenase (Homo sapiens, UniProt P08253); test: Dose Response validation of uHTS RPN11 inhibitor hits using a MMP-2 Fluorescence assay.; type: functional
[8] = biological target: Prothrombin (Bos taurus, UniProt P00735); test: thrombin inhibition, dose response, biochemical, fluorescence polarization, uHTS hits (AID 602369); type: functional
[9] = biological target: T4, Histone-lysine N-methyltransferase NSD2 (Homo sapiens, UniProt O96028); type: biochemical
T4 sequence (O96028 whole entry): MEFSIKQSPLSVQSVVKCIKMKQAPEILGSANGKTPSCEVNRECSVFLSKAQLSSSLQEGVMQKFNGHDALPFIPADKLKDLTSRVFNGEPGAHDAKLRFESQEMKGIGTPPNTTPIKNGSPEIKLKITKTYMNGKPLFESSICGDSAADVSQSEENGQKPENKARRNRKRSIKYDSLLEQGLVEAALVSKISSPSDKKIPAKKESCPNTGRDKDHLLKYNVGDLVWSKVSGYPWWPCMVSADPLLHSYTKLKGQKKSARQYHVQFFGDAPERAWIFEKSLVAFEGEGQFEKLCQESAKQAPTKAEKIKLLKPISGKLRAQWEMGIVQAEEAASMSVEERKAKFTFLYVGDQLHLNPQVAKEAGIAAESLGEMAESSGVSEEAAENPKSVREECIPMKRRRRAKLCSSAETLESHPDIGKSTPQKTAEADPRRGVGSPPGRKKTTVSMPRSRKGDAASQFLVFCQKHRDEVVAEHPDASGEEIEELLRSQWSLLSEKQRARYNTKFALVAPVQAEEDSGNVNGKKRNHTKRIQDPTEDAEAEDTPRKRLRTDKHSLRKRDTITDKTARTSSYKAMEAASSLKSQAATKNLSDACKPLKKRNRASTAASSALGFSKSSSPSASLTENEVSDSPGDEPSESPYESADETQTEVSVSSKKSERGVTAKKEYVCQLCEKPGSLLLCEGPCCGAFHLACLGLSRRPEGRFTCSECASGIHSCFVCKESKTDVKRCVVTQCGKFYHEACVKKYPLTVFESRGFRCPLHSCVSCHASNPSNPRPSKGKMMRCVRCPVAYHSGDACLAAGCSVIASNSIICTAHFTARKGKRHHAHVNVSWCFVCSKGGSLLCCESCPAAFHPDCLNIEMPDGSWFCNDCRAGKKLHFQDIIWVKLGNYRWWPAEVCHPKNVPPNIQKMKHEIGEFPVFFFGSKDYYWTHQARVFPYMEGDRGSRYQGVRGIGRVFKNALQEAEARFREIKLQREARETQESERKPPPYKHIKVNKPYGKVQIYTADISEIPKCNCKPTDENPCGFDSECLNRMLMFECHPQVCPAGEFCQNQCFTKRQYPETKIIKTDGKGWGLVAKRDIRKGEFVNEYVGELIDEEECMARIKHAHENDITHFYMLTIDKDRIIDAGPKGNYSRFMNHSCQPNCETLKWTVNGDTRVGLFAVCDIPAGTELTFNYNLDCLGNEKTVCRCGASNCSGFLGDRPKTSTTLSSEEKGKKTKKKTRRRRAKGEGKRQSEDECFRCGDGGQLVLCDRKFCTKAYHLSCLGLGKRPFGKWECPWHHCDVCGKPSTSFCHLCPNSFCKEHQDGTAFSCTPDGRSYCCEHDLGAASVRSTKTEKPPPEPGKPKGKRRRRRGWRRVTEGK

[10] = inhibitors of firefly luciferase expression or activity, dose response, H4 neuroglioma cells, luminescence (AID 1990); type: functional, cell-based
[11] = Luminescence Cell-Based Dose Response HTS to Identify Inhibitors of 5'UTR Stem-Loop Driven Prion Protein mRNA Translation in H4 Neuroglioblastoma Cells. [Related pubchem assays: 1827 (Project Summary), 1813 (Primary HTS)]; type: functional
[12] = inhibitors of SNCA 5'UTR-driven reporter translation, confirmation, H4 neuroglioma cells, luminescence (AID 1988); type: functional, cell-based
[13] = biological target: Sphingosine 1-phosphate receptor 4 (Homo sapiens, UniProt O95977); test: Late-stage fluorescence dose response cell-based assay to identify agonists of the Sphingosine 1-Phosphate Receptor 4 (S1P4): purchased compounds EC50. [Related pubchem assays (depositor defined):AID1509, AID1523, AID1563, AID1686, AID1701, AID1801]; type: functional
[14] = biological target: Trypsin (Sus scrofa, UniProt P00761); test: porcine trypsin inhibitors, dose response, selectivity assay for Rce1 protease inhibitor project, biochemical, quenched peptide fluorescence, cherry-pick (AID 488789)
[15] = biological target: T5, CAAX prenyl protease 2 (Saccharomyces cerevisiae S288c, UniProt Q03530); type: biochemical
T5 sequence (Q03530 whole entry): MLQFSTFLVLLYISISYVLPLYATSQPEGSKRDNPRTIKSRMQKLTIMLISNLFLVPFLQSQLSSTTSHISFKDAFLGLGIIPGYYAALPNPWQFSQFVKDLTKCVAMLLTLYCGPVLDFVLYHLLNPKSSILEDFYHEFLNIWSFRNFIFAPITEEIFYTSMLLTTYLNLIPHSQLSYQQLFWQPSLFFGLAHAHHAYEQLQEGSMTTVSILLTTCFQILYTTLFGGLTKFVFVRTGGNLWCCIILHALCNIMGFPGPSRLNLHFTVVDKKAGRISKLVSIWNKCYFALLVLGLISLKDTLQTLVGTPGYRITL

[16] = biological target: Type-1 angiotensin II receptor (Homo sapiens, UniProt P30556); test: AT1 receptor agonists, dose response, selectivity assay for APJ receptor agonist project, cell-based, uHTS hits (AID 488865); type: functional;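 further: beta-arrestin recruitment to AT1 measured by enzyme fragment complementation luminescence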
[17] = biological target: Coagulation factor XII (Homo sapiens, UniProt P00748); test: Factor XIIa Dose Response Confirmation from Single Well HTS. [Related pubchem assays (depositor defined):AID701]; type: functional

T2 sequence (Q00975 whole entry): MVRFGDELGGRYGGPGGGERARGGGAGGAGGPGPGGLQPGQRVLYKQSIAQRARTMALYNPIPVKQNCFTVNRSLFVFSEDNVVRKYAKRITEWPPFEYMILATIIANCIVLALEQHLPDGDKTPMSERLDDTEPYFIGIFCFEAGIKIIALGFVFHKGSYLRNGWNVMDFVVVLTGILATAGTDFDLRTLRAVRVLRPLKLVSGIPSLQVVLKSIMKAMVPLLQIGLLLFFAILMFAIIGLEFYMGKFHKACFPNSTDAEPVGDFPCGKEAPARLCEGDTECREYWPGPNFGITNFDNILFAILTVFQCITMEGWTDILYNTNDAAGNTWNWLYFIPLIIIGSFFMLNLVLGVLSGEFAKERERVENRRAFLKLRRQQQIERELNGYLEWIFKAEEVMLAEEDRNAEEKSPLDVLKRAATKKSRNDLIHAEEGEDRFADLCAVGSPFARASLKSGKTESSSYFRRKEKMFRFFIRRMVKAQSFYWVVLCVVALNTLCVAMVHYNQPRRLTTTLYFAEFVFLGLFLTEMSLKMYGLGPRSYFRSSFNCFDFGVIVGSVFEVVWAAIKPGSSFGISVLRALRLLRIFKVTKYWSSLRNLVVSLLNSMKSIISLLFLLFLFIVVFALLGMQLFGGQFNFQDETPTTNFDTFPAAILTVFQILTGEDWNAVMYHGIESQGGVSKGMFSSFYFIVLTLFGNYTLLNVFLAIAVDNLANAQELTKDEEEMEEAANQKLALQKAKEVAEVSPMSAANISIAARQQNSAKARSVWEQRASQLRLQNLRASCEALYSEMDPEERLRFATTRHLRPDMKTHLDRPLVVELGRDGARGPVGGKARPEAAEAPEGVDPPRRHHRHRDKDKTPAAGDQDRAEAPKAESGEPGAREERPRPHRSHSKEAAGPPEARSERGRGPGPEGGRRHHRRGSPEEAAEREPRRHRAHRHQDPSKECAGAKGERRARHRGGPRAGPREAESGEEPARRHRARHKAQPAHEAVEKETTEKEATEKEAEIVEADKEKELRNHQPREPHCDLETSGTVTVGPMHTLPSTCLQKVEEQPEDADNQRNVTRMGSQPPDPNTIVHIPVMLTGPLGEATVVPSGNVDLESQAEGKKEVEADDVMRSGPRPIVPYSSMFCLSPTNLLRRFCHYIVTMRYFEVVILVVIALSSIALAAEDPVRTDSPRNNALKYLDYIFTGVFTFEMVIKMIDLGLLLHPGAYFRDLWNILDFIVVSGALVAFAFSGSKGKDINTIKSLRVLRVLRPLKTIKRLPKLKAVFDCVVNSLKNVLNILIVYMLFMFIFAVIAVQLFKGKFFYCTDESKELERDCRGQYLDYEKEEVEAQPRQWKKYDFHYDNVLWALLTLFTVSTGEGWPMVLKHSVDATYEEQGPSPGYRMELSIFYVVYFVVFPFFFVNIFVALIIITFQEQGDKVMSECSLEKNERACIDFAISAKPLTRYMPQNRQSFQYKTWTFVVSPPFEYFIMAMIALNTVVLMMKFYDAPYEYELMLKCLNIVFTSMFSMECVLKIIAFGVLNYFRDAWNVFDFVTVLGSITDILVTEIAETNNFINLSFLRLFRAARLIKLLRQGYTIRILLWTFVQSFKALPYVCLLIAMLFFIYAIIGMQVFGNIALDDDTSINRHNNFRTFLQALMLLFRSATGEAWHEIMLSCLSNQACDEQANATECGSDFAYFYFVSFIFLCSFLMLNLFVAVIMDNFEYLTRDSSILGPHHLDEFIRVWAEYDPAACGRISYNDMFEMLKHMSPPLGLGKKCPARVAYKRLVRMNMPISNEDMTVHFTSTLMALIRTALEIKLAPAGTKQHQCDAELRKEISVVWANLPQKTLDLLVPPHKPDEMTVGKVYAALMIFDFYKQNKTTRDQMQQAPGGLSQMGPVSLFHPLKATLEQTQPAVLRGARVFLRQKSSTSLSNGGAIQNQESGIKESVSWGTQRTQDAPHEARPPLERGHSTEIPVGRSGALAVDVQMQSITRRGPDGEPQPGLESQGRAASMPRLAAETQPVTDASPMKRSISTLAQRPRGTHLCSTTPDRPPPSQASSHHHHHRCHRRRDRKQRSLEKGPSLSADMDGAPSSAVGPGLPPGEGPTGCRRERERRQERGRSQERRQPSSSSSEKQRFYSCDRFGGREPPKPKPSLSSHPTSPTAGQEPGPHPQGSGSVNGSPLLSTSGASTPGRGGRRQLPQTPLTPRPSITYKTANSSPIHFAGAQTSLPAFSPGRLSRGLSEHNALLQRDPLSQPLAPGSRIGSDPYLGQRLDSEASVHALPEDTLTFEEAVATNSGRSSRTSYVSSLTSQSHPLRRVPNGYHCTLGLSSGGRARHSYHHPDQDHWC
T2 sequence (Q02410 whole entry): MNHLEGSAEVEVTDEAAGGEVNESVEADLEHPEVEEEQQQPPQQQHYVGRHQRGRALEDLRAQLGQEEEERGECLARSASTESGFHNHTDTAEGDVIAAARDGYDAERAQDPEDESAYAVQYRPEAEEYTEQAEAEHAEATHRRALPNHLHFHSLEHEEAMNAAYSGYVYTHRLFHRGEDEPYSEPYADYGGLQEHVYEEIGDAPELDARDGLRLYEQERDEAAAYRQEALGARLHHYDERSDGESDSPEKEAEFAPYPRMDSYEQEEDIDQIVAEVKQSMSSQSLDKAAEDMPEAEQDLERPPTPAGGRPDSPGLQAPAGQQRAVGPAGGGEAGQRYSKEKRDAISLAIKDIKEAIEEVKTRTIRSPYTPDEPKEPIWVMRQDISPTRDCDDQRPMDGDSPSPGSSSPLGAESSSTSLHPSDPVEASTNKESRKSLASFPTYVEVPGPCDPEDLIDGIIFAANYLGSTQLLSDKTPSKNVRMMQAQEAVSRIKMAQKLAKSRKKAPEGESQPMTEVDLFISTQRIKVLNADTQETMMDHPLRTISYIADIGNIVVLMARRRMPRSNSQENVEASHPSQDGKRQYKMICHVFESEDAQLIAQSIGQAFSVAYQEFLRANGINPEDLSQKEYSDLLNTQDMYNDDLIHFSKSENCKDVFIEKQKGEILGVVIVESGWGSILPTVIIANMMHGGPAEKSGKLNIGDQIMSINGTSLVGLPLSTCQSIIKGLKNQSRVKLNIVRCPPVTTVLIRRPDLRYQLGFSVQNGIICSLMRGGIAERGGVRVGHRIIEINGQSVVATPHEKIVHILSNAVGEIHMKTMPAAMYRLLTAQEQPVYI
Sequence of Trypsin (P00761 whole entry): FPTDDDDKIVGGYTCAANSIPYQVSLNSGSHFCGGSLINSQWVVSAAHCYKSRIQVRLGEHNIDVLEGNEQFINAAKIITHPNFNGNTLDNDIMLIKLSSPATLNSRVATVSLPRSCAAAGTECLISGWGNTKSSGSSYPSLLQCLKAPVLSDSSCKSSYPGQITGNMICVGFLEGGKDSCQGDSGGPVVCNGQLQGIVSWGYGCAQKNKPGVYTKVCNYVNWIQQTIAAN
Sequence of Sphingosine 1-phosphate receptor 4 (O95977 whole entry): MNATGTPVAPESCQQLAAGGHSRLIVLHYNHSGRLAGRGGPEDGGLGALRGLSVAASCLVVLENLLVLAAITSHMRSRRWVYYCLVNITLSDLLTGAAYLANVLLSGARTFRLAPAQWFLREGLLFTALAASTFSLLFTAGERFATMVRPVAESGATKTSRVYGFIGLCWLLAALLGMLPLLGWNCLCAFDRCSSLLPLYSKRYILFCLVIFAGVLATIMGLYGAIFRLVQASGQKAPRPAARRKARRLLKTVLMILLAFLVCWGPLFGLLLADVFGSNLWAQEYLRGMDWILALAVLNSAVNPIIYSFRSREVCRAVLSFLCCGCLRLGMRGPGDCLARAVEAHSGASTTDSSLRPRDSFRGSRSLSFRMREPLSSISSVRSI
Sequence of Phospholipase A2 (P04054 whole entry): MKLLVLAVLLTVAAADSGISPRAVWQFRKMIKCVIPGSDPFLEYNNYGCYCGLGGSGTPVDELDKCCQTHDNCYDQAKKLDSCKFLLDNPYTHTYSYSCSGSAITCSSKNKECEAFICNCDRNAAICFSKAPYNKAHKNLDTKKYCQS
Sequence of 26S proteasome non-ATPase regulatory subunit 14 (O00487 whole entry): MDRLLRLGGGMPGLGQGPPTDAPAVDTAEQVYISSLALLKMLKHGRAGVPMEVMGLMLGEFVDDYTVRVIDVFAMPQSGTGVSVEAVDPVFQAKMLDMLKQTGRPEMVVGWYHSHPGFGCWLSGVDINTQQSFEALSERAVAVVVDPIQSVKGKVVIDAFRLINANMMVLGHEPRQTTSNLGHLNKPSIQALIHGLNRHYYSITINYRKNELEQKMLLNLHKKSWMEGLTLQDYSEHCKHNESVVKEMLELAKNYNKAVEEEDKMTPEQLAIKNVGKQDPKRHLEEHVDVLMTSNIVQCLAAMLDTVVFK
Sequence of Type-1 angiotensin II receptor (P30556 whole entry, the tested form may be a part): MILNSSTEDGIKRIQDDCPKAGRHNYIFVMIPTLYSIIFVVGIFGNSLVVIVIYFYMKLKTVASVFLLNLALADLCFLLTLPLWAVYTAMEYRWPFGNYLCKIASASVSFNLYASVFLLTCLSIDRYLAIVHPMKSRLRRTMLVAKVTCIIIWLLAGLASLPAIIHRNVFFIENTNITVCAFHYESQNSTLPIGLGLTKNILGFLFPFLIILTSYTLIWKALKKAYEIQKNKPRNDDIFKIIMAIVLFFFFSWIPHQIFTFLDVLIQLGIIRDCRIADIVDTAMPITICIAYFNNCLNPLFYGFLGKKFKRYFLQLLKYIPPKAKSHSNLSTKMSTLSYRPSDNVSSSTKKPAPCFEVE

## CCc1ccc(-n2cccc2/C=C2/C(=N)N3C(=NC2=O)SN=C3S(C)(=O)=O)cc1
[1]
  IC50: 34.4 µM (active)
[2]
  IC50: 7.3 µM (active)
[3]
  IC50: > 50 µM (inactive)
[4]
  IC50: 11.2 µM (active)
[5]
  IC50: 12 µM (active)
[6]
  IC50: 21.8 µM (active)
[7]
  IC50: 30.9 µM (active)
[8]
  IC50: 45.8 µM (active)
[9]
  AC50: 11.5 µM (active)

## CCc1ccc(NC(=O)C(C)OC(=O)c2c(C)nn(Cc3ccccc3)c2Cl)cc1 (configuration not stated)
[10]
  EC50: 16.4 µM (active)
[11]
  EC50: > 120 µM (not active)
[12]
  EC50: > 120 µM (not active)
[13]
  EC50: > 50 µM (inactive)

## CCC(C)NC(=O)CSC1=Nc2ccccc2C2=NC(CC(=O)NCc3ccc(F)cc3)C(=O)N12 (configuration not stated)
[14]
  AC50: 16.1 µM (active)
[15]
  AC50: 15.8 µM (active)
[16]
  EC50: > 100 µM (inactive)

## COc1cc(OC)c2c(N)c(C#N)c(C(F)(F)C(F)(F)F)nc2c1
[17]
  IC50: > 50 µM (inactive)
